From US20090297478A1, “Methods and Compositions for the Treatment of Lupus Using Clofarabine” (priority 2002, published 2009)

Columns and labels:
[1] = degradation of the drug during dissolution, lyophilization and drying (parenteral formulation); assay type: physicochemical; conditions: dissolved in 1:1 tertiary butanol/Water for Injection at 5° C., lyophilized at −16° C. for 48 hours, dried at 15° C. under high vacuum for 48 hours, protected from light
Description: Clofarabine, 9.86 g, is wetted/partially dissolved with 600 mL of a 9:1 mixture of tertiary butanol and Water for Injection USP which is pre-cooled to 5° C. Once the drug powder is completely wetted, dissolution is completed by the addition of 600 mL of a 1:9 mixture of tertiary butanol and Water for Injection and 766 mL of a 1:1 mixture of tertiary butanol and Water for Injection which likewise is pre-cooled to 5° C. thereby making the final solution a 1:1 mixture. The dissolution is carried out under protection from light.
The solution formed above is promptly lyophilized in a Virtis INOTOP lyophilizer at −16° C. under light protectant conditions over a period of 48 hours. The resultant lyophilized product (lyophile) is then further dried at 15° C. under high vacuum for 48 hours. […] The lyophile is packaged under sterile conditions into 30 mL vials, each containing 50 mg of drug, 50 mg of mannitol and sodium hydroxide to adjust the pH to 7.7 and standard excess to allow for vial/needle/syringe loss.

[2] = maximum tolerated dose of clofarabine; assay type: in vivo; conditions: species and route not given
Description: It may be necessary to use dosages of the active ingredient outside the ranges disclosed herein in some cases, as will be apparent to those of ordinary skill in the art, but the dosage should not fall below 0.01 mg/kg/day. The maximum tolerated doses of clofarabine is approximately 80 mg/kg per day. Furthermore, it is noted that the clinician or treating physician will know how and when to interrupt, adjust, or terminate therapy in conjunction with individual patient response.

In the case of Nc1nc(Cl)nc2c1ncn2[C@@H]1O[C@H](CO)[C@@H](O)[C@@H]1F [Clofarabine, 2-Chloro-9-(2-deoxy-2-fluoro-β-D-arabinofuranosyl)adenine], the “degradation of the drug” value [1] is reported as “No detectable degradation” and the maximum tolerated dose [2] is reported as “approximately 80 mg/kg per day”.
